From patent publication US12509444B2, “Compounds and methods for CD73 modulation and indications therefor” (Plexxikon Inc., priority 2019, dated 2025)
pIC50: −log10 of the molar value.

How the values were obtained:
[1] = target: T1, Human CD73 (amino acid residues 27-549) (Homo sapiens, UniProt P21589); experiment: CD73 enzymatic assay (luciferase-based indirect assay, CellTiter-Glo); format: biochemical; conditions: 0.4 nM CD73, 150 μM AMP, 1 hour at room temperature
T1 construct: Human CD73 (amino acid residues 27-549); His tag (N); made in house; host or cells: E. coli
T1 sequence (P21589 27-549): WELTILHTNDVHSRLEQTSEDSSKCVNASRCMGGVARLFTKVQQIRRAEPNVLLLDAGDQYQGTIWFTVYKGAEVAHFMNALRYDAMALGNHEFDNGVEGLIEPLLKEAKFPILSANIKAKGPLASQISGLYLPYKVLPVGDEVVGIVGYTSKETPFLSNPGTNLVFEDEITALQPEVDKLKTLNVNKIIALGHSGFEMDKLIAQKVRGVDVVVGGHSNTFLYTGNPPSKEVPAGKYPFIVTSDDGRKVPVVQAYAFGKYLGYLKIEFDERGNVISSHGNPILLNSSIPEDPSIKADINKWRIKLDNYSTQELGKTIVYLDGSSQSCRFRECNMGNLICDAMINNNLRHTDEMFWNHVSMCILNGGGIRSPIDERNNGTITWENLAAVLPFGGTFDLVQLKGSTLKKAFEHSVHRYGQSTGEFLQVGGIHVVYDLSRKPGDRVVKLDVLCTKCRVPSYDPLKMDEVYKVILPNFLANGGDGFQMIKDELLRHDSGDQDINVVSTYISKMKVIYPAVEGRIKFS
In short: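 Residual AMP inhibits luciferase, so luminescence reports CD73 turnover; read with CellTiter-Glo 2.0 plus 1 μM final ATP, 30 min. Reaction used 0.4 nM N-His CD73 (27-549, E. coli), 150 μM AMP, HEPES pH 7.4 with Tween 20, 1 h at room temperature. IC50 fitted by nonlinear regression.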

[2] = target: T2, human CD73 (Homo sapiens, UniProt P21589); experiment: Inhibitor activity against CD73 in cell based assay (CD73 expressing CHO-K1 cells); conditions: CHO-K1 cells expressing human CD73, 150 μM AMP, 4 hours of incubation; read-out: CHO-K1 CELL VARIANT: CD73 IC50
T2 construct: expressed in transfected cells
T2 sequence (P21589 27-549): T1 sequence (P21589 27-549)
In short: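 Residual supernatant AMP was quantified via CellTiter-Glo luminescence (1 μM ATP added, 30 min, room temperature) after a 4 h exposure of human CD73-expressing CHO-K1 cells to 150 μM AMP plus compound, top final 10 μM, 8 points. IC50 came from nonlinear regression of percent inhibition.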

Row | SMILES | pIC50 [1] | pIC50 [2]
1 | Cc1ccccc1C(=O)N[C@H]1CC[C@H](NC(=O)O[C@@H]2CCN(c3cn[nH]c(=O)c3Cl)C2)CC1 [P-0316, (R)-1-(5-chloro-6-oxo-1,6-dihydropyridazin-4-yl)pyrrolidin-3-yl ((1r,4R)-4-(2-methylbenzamido)cyclohexyl) carbamate] | 5.00 to 9.00 | 5.00 to 9.00
2 | CC(C)C(=O)N1CCC(NC(=O)O[C@@H]2CCN(c3cn[nH]c(=O)c3Cl)C2)CC1 [P-0372, (R)-1-(5-chloro-6-oxo-1,6-dihydropyridazin-4-yl)pyrrolidin-3-yl (1-isobutyrylpiperidin-4-yl)carbamate] | 5.00 to 9.00 | 5.00 to 9.00
3 | O=C(N[C@H]1CC[C@@H](NC2CCC2)CC1)O[C@@H]1CCN(c2cn[nH]c(=O)c2Cl)C1 [P-0434, (R)-1-(5-chloro-6-oxo-1,6-dihydropyridazin-4-yl)pyrrolidin-3-yl ((1s,4S)-4-(cyclobutylamino)cyclohexyl) carbamate] | 5.00 to 9.00 | 5.00 to 9.00
4 | O=C(NC1CCN(C(=O)Nc2ccccc2C(F)(F)F)CC1)O[C@@H]1CCN(c2cn[nH]c(=O)c2Cl)C1 [P-0388, (R)-1-(5-chloro-6-oxo-1,6-dihydropyridazin-4-yl)pyrrolidin-3-yl (1-((2-(trifluoromethyl)phenyl)carbamoyl)piperidin-4-yl) carbamate] | 5.00 to 9.00 | 5.00 to 9.00
5 | O=C(N[C@H]1CC[C@H](NS(=O)(=O)c2ccc3ncsc3c2)CC1)O[C@@H]1CCN(c2cn[nH]c(=O)c2Cl)C1 [P-0296, (R)-1-(5-chloro-6-oxo-1,6-dihydropyridazin-4-yl)pyrrolidin-3-yl ((1r,4R)-4-(benzo[d]thiazole-6-sulfonamido)cyclohexyl) carbamate] | 5.00 to 9.00 | 5.00 to 9.00
6 | O=C(N[C@H]1CC[C@H](NC(=O)c2ccc(Cl)cc2)CC1)O[C@@H]1CCN(c2cn[nH]c(=O)c2Cl)C1 [P-0265, (R)-1-(5-chloro-6-oxo-1,6-dihydropyridazin-4-yl)pyrrolidin-3-yl ((1r,4R)-4-(4-chlorobenzamido)cyclohexyl) carbamate] | 5.00 to 9.00 | 5.00 to 9.00
7 | O=C(NC1CCN(C2CCCC2)CC1)O[C@@H]1CCN(c2cn[nH]c(=O)c2Cl)C1 [P-0121, (R)-1-(5-chloro-6-oxo-1,6-dihydropyridazin-4-yl)pyrrolidin-3-yl (1-cyclopentylpiperidin-4-yl)carbamate] | 5.00 to 9.00 | 5.00 to 9.00
8 | CC(C)N1CCC(NC(=O)O[C@@H]2CCN(c3cn[nH]c(=O)c3Cl)C2)CC1 [P-0122, (R)-1-(5-chloro-6-oxo-1,6-dihydropyridazin-4-yl)pyrrolidin-3-yl (1-isopropylpiperidin-4-yl)carbamate] | 5.00 to 9.00 | 5.00 to 9.00
9 | O=C(NC1CC2CCC1O2)O[C@@H]1CCN(c2cn[nH]c(=O)c2Cl)C1 (stereo partly drawn) [P-0117, (R)-1-(5-chloro-6-oxo-1,6-dihydropyridazin-4-yl)pyrrolidin-3-yl (7-oxabicyclo[2.2.1]heptan-2-yl)carbamate] | 5.00 to 9.00 | 5.00 to 9.00
10 | CS(=O)(=O)N[C@H]1C[C@H](NC(=O)O[C@@H]2CCN(c3cn[nH]c(=O)c3Cl)C2)C1 [P-0170, (R)-1-(5-chloro-6-oxo-1,6-dihydropyridazin-4-yl)pyrrolidin-3-yl ((1r,3R)-3-(methylsulfonamido)cyclobutyl)carbamate] | 5.00 to 9.00 | 5.00 to 9.00
11 | N#Cc1c(N2C[C@H](OC(=O)NC3CCCC3)[C@@H](F)C2)cnn(CCO)c1=O [P-0486, (3S,4S)-1-(5-cyano-1-(2-hydroxyethyl)-6-oxo-1,6-dihydropyridazin-4-yl)-4-fluoropyrrolidin-3-yl cyclopentylcarbamate] | 5.00 to 9.00 | 5.00 to 9.00
12 | COc1ccc(S(=O)(=O)C[C@H]2CC[C@H](NC(=O)O[C@@H]3CCN(c4cn[nH]c(=O)c4Cl)C3)CC2)cc1 [P-0366, (R)-1-(5-chloro-6-oxo-1,6-dihydropyridazin-4-yl)pyrrolidin-3-yl ((1r,4R)-4-(((4-methoxyphenyl)sulfonyl)methyl)cyclohexyl)carbamate] | 5.00 to 9.00 | 5.00 to 9.00
13 | N#Cc1c(N2CC[C@@H](OC(=O)NC3CCNCC3)C2)cn[nH]c1=O [P-0166, (R)-1-(5-cyano-6-oxo-1,6-dihydropyridazin-4-yl)pyrrolidin-3-yl piperidin-4-ylcarbamate] | 5.00 to 9.00 | 5.00 to 9.00
14 | O=C(N[C@H]1CCC[C@H]1C(F)(F)F)O[C@@H]1CCN(c2cn[nH]c(=O)c2Cl)C1 [P-0383, (R)-1-(5-chloro-6-oxo-1,6-dihydropyridazin-4-yl)pyrrolidin-3-yl ((1S,2R)-2-(trifluoromethyl)cyclopentyl) carbamate] | 5.00 to 9.00 | 5.00 to 9.00
15 | O=C(NC1CCN(C(=O)Nc2ccc(OC(F)(F)F)cc2)CC1)O[C@@H]1CCN(c2cn[nH]c(=O)c2Cl)C1 [P-0492, (R)-1-(5-chloro-6-oxo-1,6-dihydropyridazin-4-yl)pyrrolidin-3-yl (1-((4-(trifluoromethoxy)phenyl)carbamoyl)piperidin-4-yl) carbamate] | 5.00 to 9.00 | 5.00 to 9.00
16 | CC1CCCC1NC(=O)O[C@@H]1CCN(c2cn[nH]c(=O)c2Cl)C1 (stereo partly drawn) [P-0381, (R)-1-(5-chloro-6-oxo-1,6-dihydropyridazin-4-yl)pyrrolidin-3-yl (2-methylcyclopentyl)carbamate] | 5.00 to 9.00 | 5.00 to 9.00
17 | O=C(N[C@H]1CC[C@@H](F)CC1)O[C@@H]1CCN(c2cn[nH]c(=O)c2Cl)C1 [P-0339, (R)-1-(5-chloro-6-oxo-1,6-dihydropyridazin-4-yl)pyrrolidin-3-yl ((1s,4S)-4-fluorocyclohexyl)carbamate] | 5.00 to 9.00 | 5.00 to 9.00
18 | O=C(Nc1cnn2cccnc12)O[C@@H]1CCN(c2cn[nH]c(=O)c2Cl)C1 [P-0224, (R)-1-(5-chloro-6-oxo-1,6-dihydropyridazin-4-yl)pyrrolidin-3-yl pyrazolo[1,5-a]pyrimidin-3-ylcarbamate] | 5.00 to 9.00 | 4.00 to 5.00
19 | O=C(N[C@H]1CC[C@H](NC(=O)c2ccccn2)CC1)O[C@@H]1CCN(c2cn[nH]c(=O)c2Cl)C1 [P-0260, (R)-1-(5-chloro-6-oxo-1,6-dihydropyridazin-4-yl)pyrrolidin-3-yl ((1r,4R)-4-(picolinamido)cyclohexyl) carbamate] | 5.00 to 9.00 | 5.00 to 9.00
20 | CCC(CC)NC(=O)O[C@@H]1CCN(c2cn[nH]c(=O)c2Cl)C1 [P-0215, (R)-1-(5-chloro-6-oxo-1,6-dihydropyridazin-4-yl)pyrrolidin-3-yl pentan-3-ylcarbamate] | 5.00 to 9.00 | 5.00 to 9.00
21 | O=C(NC1CCN(C(=O)NC2CCCCC2)CC1)O[C@@H]1CCN(c2cn[nH]c(=O)c2Cl)C1 [P-0147, (R)-1-(5-chloro-6-oxo-1,6-dihydropyridazin-4-yl)pyrrolidin-3-yl (1-(cyclohexylcarbamoyl)piperidin-4-yl)carbamate] | 5.00 to 9.00 | 5.00 to 9.00
22 | CC(C)(O)Cn1ncc(N2CC[C@@H](OC(=O)NC3CCC(F)(F)CC3)C2)c(Cl)c1=O [P-0331, (R)-1-(5-chloro-1-(2-hydroxy-2-methylpropyl)-6-oxo-1,6-dihydropyridazin-4-yl)pyrrolidin-3-yl (4,4-difluorocyclohexyl)carbamate] | 5.00 to 9.00 | 4.00 to 5.00
23 | COCCS(=O)(=O)N[C@H]1CC[C@H](NC(=O)O[C@@H]2CCN(c3cn[nH]c(=O)c3Cl)C2)CC1 [P-0303, (R)-1-(5-chloro-6-oxo-1,6-dihydropyridazin-4-yl)pyrrolidin-3-yl ((1r,4R)-4-((2-methoxyethyl)sulfonamido)cyclohexyl)carbamate] | 5.00 to 9.00 | 5.00 to 9.00
24 | O=C(N[C@@H]1CCN(c2cn[nH]c(=O)c2Cl)C1)N[C@@H]1CCN(c2cn[nH]c(=O)c2Cl)C1 [P-0103, 1,3-bis((R)-1-(5-chloro-6-oxo-1,6-dihydropyridazin-4-yl)pyrrolidin-3-yl)urea] | 5.00 to 9.00 | 4.00 to 5.00
25 | N#C[C@H]1CC[C@H](NC(=O)O[C@@H]2CCN(c3cn[nH]c(=O)c3Cl)C2)CC1 [P-0275, (R)-1-(5-chloro-6-oxo-1,6-dihydropyridazin-4-yl)pyrrolidin-3-yl ((1r,4R)-4-cyanocyclohexyl)carbamate] | 5.00 to 9.00 | 5.00 to 9.00
26 | N#C[C@@H]1CCC[C@H]1NC(=O)O[C@@H]1CCN(c2cn[nH]c(=O)c2Cl)C1 [P-0380, (R)-1-(5-chloro-6-oxo-1,6-dihydropyridazin-4-yl)pyrrolidin-3-yl ((1R,2R)-2-cyanocyclopentyl)carbamate] | 5.00 to 9.00 | 5.00 to 9.00
